The values below come from patent US20100273876A1, “ANTIBACTERIAL FORMULATION COMPRISING A DIALKYL SULPHOSUCCINATE AND A CARBANILIDE ANTIBACTERIAL AGENT” (priority 2007, published 2010).

Usually MBC stands for the smallest concentration meeting the test's criterion for killing.

The assay has as its system C. striatum NCTC 764. Put plainly: MBC assay. It counts as cell-based, Corynebacterium striatum. The protocol: Several Corynebacterium test species were also used in this study, namely C. mucifaciens ATCC 700355, C. striatum NCTC 764, C. xerosis NCTC 11861 and C. jeikeium NCTC 11915. These Gram-positive pathogens are closely related to organisms (aerobic diphtheroids of the genus Corynebacterium) that cause body odour. C. mucifaciens and C. striatum were cultured and maintained on Mueller-Hinton Medium (agar and broth) and were incubated aerobically at 37° C. for 24 hours. C. xerosis and C. jeikeium were cultured and maintained on Mueller-Hinton Medium containing 5% (v/v) lysed horse blood (agar and broth) and were incubated aerobically at 37° C. for 72 hours. This assay, normally carried out after an MIC assay, determines the rnininiurn concentration of a compound that is lethal to the micro-organism being tested. […] These samples were then individually sub-cultured on antibiotic-free agar medium, under the incubation conditions described above. Following incubation they were examined visually for microbial growth.

dioctyl sodium sulphosuccinate [DOSS]: the MBC was 62.5 µg/mL and the MIC/MBC ratio amounted to 1.
